From US20220363689A1, “INHIBITOR OF BTK AND MUTANTS THEREOF” (Newave Pharmaceutical Inc., priority 2019, published 2022)
Read-outs that look alike come from different tables or passages of the source.

Key:
[1] = Mice PK study; type: in vivo; settings: plasma, CD-1 mouse, po, 25 mg/kg
Protocol: The pharmacokinetics of compounds were evaluated in CD-1 mouse via Intravenous and Oral Administration. The IV dose was administered as a slow bolus in the Jugular vein, and oral doses were administered by gavage. The formulation for IV dosing is 5% DMSO in 20% HPBCD in water, and the PO formulation is 2.5% DMSO, 10% EtOH, 20% Cremphor EL, 67.5% D5W. The PK time point for the IV arm was 5, 15, 30 min, 1, 2, 4, 6, 8, 12, 24 hours post dose, and for PO arm was 15, 30 min, 1, 2, 4, 6, 8, 12, 24 hours post dose. Approximately 0.03 mL blood was collected at each time point. Blood of each sample was transferred into plastic micro centrifuge tubes containing EDTA-K2 and plasma was collected within 15 min by centrifugation at 4000 g for 5 minutes in a 4° C. centrifuge. Plasma samples were stored in polypropylene tubes. The samples were stored in a freezer at −75±15° C. prior to analysis. Concentrations of compounds in the plasma samples were analyzed using a LC-MS/MS method. WinNonlin (Phoenix™, version 6.1) or other similar software was used for pharmacokinetic calculations. The following pharmacokinetic parameters were calculated, whenever possible from the plasma concentration versus time data: IV administration: C0, CL, Vd, T1/2, AUCinf, AUClast, MRT, Number of Points for Regression; PO administration: Cmax, Tmax, T1/2, AUCinf, AUClast, F %, Number of Points for Regression. The pharmacokinetic data was described using descriptive statistics such as mean, standard deviation. Additional pharmacokinetic or statistical analysis was performed at the discretion of the contributing scientist, and was documented in the data summary. For comparison purpose, the PK results of oral dosing of po, 25 mg/kg of Acalbrutinib, a FDA approved BTK inhibitor, were obtained using the same methods and shown in the Table below.

[2] = system: liver cancer cell line HepG2; experiment: HepG2 in vitro liver toxicity assay (ATPlite); type: cell-based; settings: another experiment, about 72 hours incubation, read-out: HepG2 IC50 (another experiment)
Protocol: Cell antiproliferation is assayed by PerkinElmer ATPlite™ Luminescence Assay System. Briefly, the liver cancer cell line HepG2 are plated at a density of about 1×10^4 cells per well in Costar 96-well plates, and are incubated with different concentrations of compounds for about 72 hours in medium supplemented with 5% FBS. One lyophilized substrate solution vial is then reconstituted by adding 5 mL of substrate buffer solution, and is agitated gently until the solution is homogeneous. About 50 μL of mammalian cell lysis solution is added to 100 μL of cell suspension per well of a microplate, and the plate is shaken for about five minutes in an orbital shaker at −700 rpm. This procedure is used to lyse the cells and to stabilize the ATP. Next, 50 μL substrate solution is added to the wells and microplate is shaken for five minutes in an orbital shaker at −700 rpm. Finally, the luminescence is measured by a PerkinElmer TopCount® Microplate Scintillation Counter. Such assays, carried out with a range of doses of test compounds, allow the determination of the cellular anti-antiproliferative IC50 of the compounds of the present invention.

[3] = biological target: T1, WT BTK (Homo sapiens, UniProt Q06187); experiment: In vitro dialysis assay (irreversibility assay), WT BTK; type: biochemical; settings: reversible or irreversible/covalent inhibition after 24 h dialysis
T1 sequence (Q06187 whole entry): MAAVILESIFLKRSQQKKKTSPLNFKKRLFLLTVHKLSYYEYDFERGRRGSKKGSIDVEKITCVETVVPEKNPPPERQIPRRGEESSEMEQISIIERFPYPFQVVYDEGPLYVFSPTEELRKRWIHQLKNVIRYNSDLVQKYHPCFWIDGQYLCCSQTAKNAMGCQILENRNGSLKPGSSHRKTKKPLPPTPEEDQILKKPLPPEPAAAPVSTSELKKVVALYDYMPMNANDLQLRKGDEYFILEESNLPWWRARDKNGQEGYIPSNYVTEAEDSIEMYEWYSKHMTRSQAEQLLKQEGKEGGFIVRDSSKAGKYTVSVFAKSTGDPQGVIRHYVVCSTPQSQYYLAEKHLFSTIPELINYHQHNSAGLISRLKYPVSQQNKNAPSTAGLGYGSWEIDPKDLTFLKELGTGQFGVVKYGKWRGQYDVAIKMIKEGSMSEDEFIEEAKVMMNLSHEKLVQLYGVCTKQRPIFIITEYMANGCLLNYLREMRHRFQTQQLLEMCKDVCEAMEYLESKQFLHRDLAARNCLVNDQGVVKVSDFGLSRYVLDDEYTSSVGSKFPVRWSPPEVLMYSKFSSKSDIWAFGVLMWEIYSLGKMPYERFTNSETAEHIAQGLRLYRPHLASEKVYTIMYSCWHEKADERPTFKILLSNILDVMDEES
Protocol: The compound-enzyme complex was dialyzed against the same buffer supplemented with 40 mM ATP for 24 hr. Cumulative dialysis factor>160,000×. After dialysis, the BTK activity was measured in the presence […] and 1 mM substrate peptide and compared to that in non-dialyzed samples. Assay buffer: 100 mM HEPES, pH7.5; […]; 5 mM MgCl2; 1 mM DTT. In this study, Ibrutiib (a FDA approved irreversible BTK inhibitor) was used as a positive control and Saurosporine (a reversible BTK inhibitor) was used as a negative control.

[4] = biological target: T1, WT BTK; experiment: Caliper-based kinase assay, WT BTK; type: biochemical; settings: 0.5 nM enzyme, ATP 16 μM, room temperature 3 h; read-out: WT BTK IC50 (nM) (irreversible inhibition)
Protocol: A Caliper-based kinase assay (Caliper Life Sciences, Hopkinton, Mass.) was used to measure inhibition of WT and […] Btk kinase activity of a compound of the present disclosure. […] The reaction was then terminated with EDTA, final concentration 20 mM and the phosphorylated reaction product was quantified on a Caliper Desktop Profiler (Caliper LabChip 3000).

[5] = dogs, even at higher doses; cited from earlier work
[6] = Phase I clinical trials, formulations containing GDC-0853; cited from earlier work
[7] = mice, even at higher doses; cited from earlier work
[8] = rats, treatment for longer than 7 days; cited from earlier work
[9] = system: basophil activation, B cell receptor activation, and constitutive p-BTK activity in whole blood lysates; settings: read-out: IC50s for basophil activation, B cell receptor activation, and constitutive p-BTK activity; cited from earlier work
[10] = biological target: C4815S BTK enzyme (Homo sapiens, UniProt Q06187, C481S); experiment: Reversibility of binding to C481S BTK enzyme; type: biochemical; settings: Cysteine residue not available for covalent binding
Chain of C4815S BTK enzyme (Q06187 whole entry C481S): as the sequence (Q06187 whole entry) above, with C481S counted along it

Question: Which AUC [1] does the source give for `CC#CC(=O)N1CCC[C@H]1c1nc(-c2ccc(C(=O)Nc3ccccn3)cc2)c2c(N)nccn12` [Acalabrutinib, reference compound] here?
Answer: The AUC was 1450 ng·h/mL.

Question: And the half-life ([1]; read-out: t ½ (converted))?
Answer: Its half-life is 1.1 h.

Question: And the IC50 ([2]; Homo sapiens, HepG2)?
Answer: Its IC50 is greater than 40000 nM.

Question: With `C=CC(=O)Nc1cc(Nc2nc(-c3ccnc(N4CCc5c(sc6c5CCCC6)C4=O)c3CO)cn(C)c2=O)ccc1N1CCN(C2CCOCC2)C[C@@H]1C` [Example 56, N-[5-([6-[3-(hydroxymethyl)-2-[6-oxo-8-thia-5-azatricyclo[7.4.0.0^[2,7]]trideca-1(9), 2(7)-dien-5-yl]pyridin-4-yl]-4-methyl-3-oxopyrazin-2-yl]amino)-2-[(2S)-2-methyl-4-(oxan-4-yl)piperazin-1-yl]phenyl]prop-2-enamide] as the compound, how does the “Conclusion (WT BTK)” value [3] read?
Answer: Its value is “Irreversible/covalent inhibition”.

Question: What about the IC50 [2] of the same compound?
Answer: Its IC50 is 26000 nM.

Question: What about the IC50 [4] of the same compound?
Answer: Its IC50 is 0.058 nM.

Question: With `C[C@H]1CN(C2COC2)CCN1c1ccc(Nc2cc(-c3ccnc(N4CCn5c(cc6c5CC(C)(C)C6)C4=O)c3CO)cn(C)c2=O)nc1` [GDC-0853] as the compound, how does the Pancreatic toxicity [5] read?
Answer: The Pancreatic toxicity was “does not occur”.

Question: What about the Tolerability [6] of the same compound?
Answer: The Tolerability was “well-tolerated”.

Question: What about the “Conclusion (WT BTK)” value [3] of the same compound?
Answer: The value was “Reversible”.

Question: What about the Pancreatic toxicity [7] of the same compound?
Answer: Its Pancreatic toxicity is “does not occur”.

Question: And the Pancreatic toxicity [8]?
Answer: The Pancreatic toxicity was “pancreatic toxicity”.

Question: What about the IC50 [9] of the same compound?
Answer: The IC50 was 2 to 9 nM.

Question: For `C=CC(=O)Nc1cc(Nc2nc(-c3ccnc(N4CCn5c(cc6c5CC(C)(C)C6)C4=O)c3CO)cn(C)c2=O)ccc1N1CCN(C)CC1` [Example 2, N-(5-((6-(2-(7,7-dimethyl-1-oxo-1,3,4,6,7,8-hexahydro-2H-cyclopenta[4,5]pyrrolo[1,2-a]pyrazin-2-yl)-3-(hydroxymethyl)pyridin-4-yl)-4-methyl-3-oxo-3,4-dihydropyrazin-2-yl)amino)-2-(4-methylpiperazin-1-yl)phenyl)acrylamide], which “Conclusion (WT BTK)” value [3] is on record?
Answer: The value was “irreversible/covalent inhibition”.

Question: What about the “Mode of binding to C481S BTK” value [10] of the same compound?
Answer: Its value is “reversibly bind”.
